Measured values from US9499614B2, “Methods for modulating protein glycosylation profiles of recombinant protein therapeutics using monosaccharides and oligosaccharides” (AbbVie, Inc., priority 2013, dated 2016).

Columns and labels:
Cell Line 1 [1] = assay: 3 L laboratory-scale bioreactor culture of Cell Line 1, cell culture performance; format: cell-based, Chinese Hamster
Method: Two recombinant Chinese Hamster Ovary (CHO) cell lines expressing two different humanized monoclonal antibodies (Antibody 1, Antibody 2) were evaluated in two different culture vessels (shaker flasks and laboratory scale bioreactors). Both cell lines were of CHO DUX-B11 origin based on a dhfr (dihydrofolate reductase) expression system. Both cell lines were cultured in the same chemically defined basal media (CDBM), with Cell Line 1 also utilizing a chemically-defined feed media (CDFM). Each of the respective media were supplemented with selected monosaccharides and oligosaccharides to evaluate their potential impact on the resulting N-glycan oligosaccharide profile. In preparing the cultures, the cell lines were serially expanded through separate seed train inoculums to generate enough cells for inoculation.
(§1) Viable cell density (VCD) and cell viability values were measured through trypan blue exclusion via Cedex automated cell counters (Roche Applied Science, Indianapolis, Ind.), glucose and lactate values were measured with a ABL-805 (Radiometer Medical, Denmark) blood gas analyzer. Offline pH, dissolved oxygen (DO), and pCO2 measurements were performed with a ABL-805 (Radiometer Medical, Denmark) blood gas analyzer. Osmolality was measured on a Multi-Osmette 2430 osmometer (Precision Systems, Natick, Mass.).
Antibody titers were measured from crude cell culture harvests on a Poros A™ (Life Technologies, Carlsbad, Calif.) affinity column using an Agilent (Santa Clara, Calif.) 1200 Series HPLC, or equivalent, operating with a low pH, step elution gradient with detection at 280 nm. Absolute concentrations were assigned with respect to reference standard calibration curves.
(§2) 3 L scale-down model bioreactors were utilized to verify the impact of select sugars on the resulting protein glycosylation profiles. The concentration of the sucrose and tagatose was chosen to minimize any potential adverse impact on cell growth and productivity, but still facilitate a measurable modulation of the glycosylation profile. Cell culture process performance indicators were monitored and measured throughout the respective cultures. Viable cell density, cell viability, lactate, pCO2, osmolality, harvest titer, and harvest N-glycan oligosaccharide data were measured and reported.
Two recombinant Chinese Hamster Ovary (CHO) cell lines expressing two different recombinant glycoproteins were evaluated in two different cultures vessels (shaker flasks and 3 L laboratory scale bioreactors). Cell Line 1 expressed Antibody 1, Cell Line 2 expressed Dual Variable Domain Immunoglobulin 1 (DVD 1) and Cell Line 3 expressed Antibody 2. Antibodies 1 and 2 are IgG1 proteins, and DVD 1 is an immunoglobulin with two variable domains as documented previously (Wu C. et al., (2007) Nat. Biotechnol 25(11):1290-1297). All cell lines were of CHO DUX-B11 origin based on a dhfr (dihydrofolate reductase) expression system. All cell lines were cultured in the same chemically defined basal media. Cell lines 1 and 2 were fed with the same chemically-defined feed media, but Cell Line 1 was fed media that was formulated at a 50% higher concentration. Each of the respective media were supplemented with either sucrose or tagatose to evaluate their potential impact on the resulting N-glycan oligosaccharide profile. All sugars were purchased from Sigma-Aldrich (St. Louis, Mo.). In preparation of the cultures, the cell lines were serially expanded through separate seed train inoculums to generate enough cells for inoculation.
as §1, with “performed with an ABL-805 (Radiometer” for “performed with a ABL-805 (Radiometer”, “gas analyzer. […]” for “gas analyzer. Osmolality was measured on a Multi-Osmette 2430 osmometer (Precision Systems, Natick, Mass.).”

Cell Line 1 [2] = assay: N-glycan oligosaccharide profiling, Cell Line 1 in 3 L laboratory-scale bioreactors; format: cell-based, Chinese Hamster; conditions: 50 mM supplement
Method: Purified antibodies subjected to additional analytical characterization were purified using MabSelect™ Protein A (GE Healthcare, Piscataway, N.J.) using a low pH, step elution gradient, followed by buffer exchange using Corning Lifesciences (Tewksbury, Mass.) Spin Concentrator X UF columns according to the manufacturers' recommended procedures.
Approximately 200 μg of Protein A purified samples from Cell Lines 1 and 2 were treated with N-glycanase at 37° C. overnight to remove the N-glycans from the protein. The protein was precipitated and the supernatant was taken for subsequent chemical derivatization of the reducing end of the released glycans with 2-aminobenzamide (2-AB) dye. Following the derivatization step, the excess label was removed using clean up cartridges and the samples were analyzed using normal phase HPLC with fluorescent detection. Mobile phase A was 100% acetonitrile and mobile phase B was 50 mM ammonium formate pH 4.4. The glycans were eluted from a polyamide column (Prozyme, Hayward, Calif.) using a shallow gradient. The labeled glycans were detected using a fluorescence detector with an excitation wavelength of 330 nm and an emission wavelength of 420 nm.
as §2
3 L scale laboratory bioreactors were utilized to verify the impact of sucrose, tagatose, or fructose on protein glycosylation profiles. Concentrations of the sugars were chosen to minimize any potential adverse impacts on cell growth and productivity, but still facilitate a measurable impact on the glycoform profile. Cell culture process performance indicators were monitored and measured throughout the study. Viable cell density, cell viability, lactate, pCO2, osmolality, harvest titer, and harvest N-glycan oligosaccharide data was measured and reported.

For O=C(CO)[C@@H](O)[C@H](O)[C@H](O)CO [fructose, reference compound], the Osmolality (Cell Line 1 [1]; 50 mM supplement vs control) was “only slightly higher”, the cell viability (Cell Line 1 [1]; 50 mM supplement vs control) was “no impact” and the viable cell density (Cell Line 1 [1]; 50 mM supplement vs control) was “no impact”. The “final harvest titer ratio” value (Cell Line 1 [1]; 50 mM supplement, relative to unsupplemented control) was 0.81 and the “changes in protein glycosylation compared to the control” value (Cell Line 1 [2]) was “did not facilitate any significant changes in protein glycosylation”.
